Assay results taken from patent publication US12661355B2, “Compounds and methods for inducing UCP1 expression” (The Regents of the University of California, priority 2020, dated 2026).

Experiments:
[1] = molecular target: T1, AKAP6 (Mus musculus, UniProt E9Q9K8); assay: CETSA in brown adipocytes, AKAP6; assay type: binding; settings: 10 μM for 8 h
T1 construct: endogenous in cells; host or cells: immortalized mouse brown adipocytes
Protocol: (§1) CETSA assays were performed according to known methods. Briefly, differentiated brown adipocytes (one 10 cm dish per treatment) were treated with vehicle or compounds, trypsinized, counted, and re-suspended in approximately 450 μl PBS containing protease inhibitors (volumes were adjusted to have the same number of cells in each treatment). For each sample, 18 μl was distributed into each of 7 PCR tubes. Samples were heated using a thermocycler with a temperature gradient (iCycler, Biorad) for 3 min, followed by 3 min at room temperature, and then snap-frozen in liquid N2. After two freeze-thaw cycles, samples were centrifuged at 20,000 g for 15 min at 4° C., and the supernatants were transferred to another set of tubes. Proteins were analyzed by immunoblotting.
(§2) The potential interaction of Z160 with PKA subunits and AKAPs was assessed first by identifying which PKA subunits and AKAP isoforms are normally present in BAT. […] To perform the CETSA assays, cultured brown adipocytes were incubated with 10 μM Z160 for 8 h, after which the thermal shift was analyzed by Western blot.

[2] = molecular target: T2, PKA subunits (C-α and RII-β) (Mus musculus, UniProt P05132+P31324); assay: CETSA in brown adipocytes, PKA subunits; assay type: binding; settings: 10 μM for 8 h
T2 construct: endogenous in cells; host or cells: immortalized mouse brown adipocytes
Protocol: as §1
The PKA tetramer consists of two catalytic and two regulatory subunits. In the mouse, these are catalytic subunits C-α and C-β, and regulatory subunits RI and RII, each with α and β isoforms (RI-α, RI-β, RII-α, RII-β). […]
as §2

[3] = molecular target: T3, AKAP1 (Rattus norvegicus, UniProt O88884); assay: DARTS in H9c2 cell extracts, AKAP1; assay type: binding; settings: 20 μM, 1 h
T3 construct: DARTS assay in H9c2 cell extracts treated with vehicle or 20 μM Z160 for 1 h; endogenous in cells; host or cells: rat H9c2 cells
Protocol: Rat H9c2 cells were grown in DMEM supplemented with 10% FBS, 25 mM glucose, 1 mM pyruvate, and 2 mM glutamine Neonatal rat ventricular myocytes (NRVM) were isolated and cultured as previously described. Briefly, 2-4 day old rats were sacrificed and myocytes and fibroblasts were isolated and separated using a Percoll density gradient. Following isolation, NRVMs were plated on gelatin-coated plates in DMEM containing 10% FBS, 25 mM glucose, 1 mM pyruvate, and 2 mM glutamine The next day, FBS was replaced by 1× insulin-transferrin-selenium supplement and the cells were treated with vehicle or 10 μM Z160 for 2 days, with or without 60 μM isoproterenol or 50 μM phenylephrine.
[…] assays were performed according to known methods. Briefly, BAT or cells within a 10 cm dish were lysed with 600 μl M-PER buffer containing protease and phosphatase inhibitors. Debris was pelleted by centrifugation at 18,000 g for 10 min at 4° C., and the lysates were harvested and supplemented with TNC buffer (50 mM Tris-HCl, 50 mM NaCl, 10 mM CaCl2). The lysates were split into two tubes and treated with either vehicle or 20 μM Z160 for 1 h at room temperature. For experiment with BAT, 100 μg of lysate was incubated with different Z160 concentrations. […]

[4] = tested on: C57BL/6J male mice; assay: Thermogenesis in vivo after subcutaneous injection; settings: single subcutaneous injection 1.5 mg/kg
Protocol: All mouse studies were conducted in accordance with and approved by the Institutional Animal Research Committee of the University of California, Los Angeles. C57BL/6J male mice were obtained from the Jackson Laboratory. For the drug injection, Z160 (diluted in 100 μl DMSO) was injected subcutaneously, near BAT, at 1.5 mg/kg body weight and compared with vehicle alone. […] Body temperature was obtained with a rectal probe (BAT-12, Physitemp). Aspartate aminotransferase (AST) activity was determined from plasma according to the manufacturer's protocol (MAK055, Sigma).

[5] = tested on: PKA; assay: PKA activity ELISA, cell or tissue lysates treated 30 min; assay type: biochemical, mouse; settings: 30 min; for PKA activity: brown adipocyte lysate
Protocol: PKA kinase activity was measured with an ELISA that utilized a synthetic peptide as substrate for PKA and a polyclonal antibody that recognizes the phosphorylated form of the substrate (ab139435, Abcam). PKA activity was measured in lysates from cultured brown adipocytes, mouse BAT, or liver. Cells and tissues were lysed in 20 mM MOPS, 5 mM EGTA, 2 mM EDTA, and 0.1% Triton X-100 supplemented with protease and phosphatase inhibitor as described above. Protein concentration was determined by Bradford assay and 10 μg of cells, 0.25 μg of BAT extract, or 0.5 μg of liver extract were assessed for PKA activation according to the manufacturer's instruction, with minor changes. Briefly, vehicle or Z160 was incubated with brown adipocyte cells overnight or with protein lysates for 30 min, followed by one wash before the primary antibody, 60 min incubation with the primary antibody, 30 min incubation with the secondary antibody, and by 10 min washing. Absorbance was measured after the substrate was added for 20-60 min, depending the intensity of the signal.

T3 sequence (O88884 30-854): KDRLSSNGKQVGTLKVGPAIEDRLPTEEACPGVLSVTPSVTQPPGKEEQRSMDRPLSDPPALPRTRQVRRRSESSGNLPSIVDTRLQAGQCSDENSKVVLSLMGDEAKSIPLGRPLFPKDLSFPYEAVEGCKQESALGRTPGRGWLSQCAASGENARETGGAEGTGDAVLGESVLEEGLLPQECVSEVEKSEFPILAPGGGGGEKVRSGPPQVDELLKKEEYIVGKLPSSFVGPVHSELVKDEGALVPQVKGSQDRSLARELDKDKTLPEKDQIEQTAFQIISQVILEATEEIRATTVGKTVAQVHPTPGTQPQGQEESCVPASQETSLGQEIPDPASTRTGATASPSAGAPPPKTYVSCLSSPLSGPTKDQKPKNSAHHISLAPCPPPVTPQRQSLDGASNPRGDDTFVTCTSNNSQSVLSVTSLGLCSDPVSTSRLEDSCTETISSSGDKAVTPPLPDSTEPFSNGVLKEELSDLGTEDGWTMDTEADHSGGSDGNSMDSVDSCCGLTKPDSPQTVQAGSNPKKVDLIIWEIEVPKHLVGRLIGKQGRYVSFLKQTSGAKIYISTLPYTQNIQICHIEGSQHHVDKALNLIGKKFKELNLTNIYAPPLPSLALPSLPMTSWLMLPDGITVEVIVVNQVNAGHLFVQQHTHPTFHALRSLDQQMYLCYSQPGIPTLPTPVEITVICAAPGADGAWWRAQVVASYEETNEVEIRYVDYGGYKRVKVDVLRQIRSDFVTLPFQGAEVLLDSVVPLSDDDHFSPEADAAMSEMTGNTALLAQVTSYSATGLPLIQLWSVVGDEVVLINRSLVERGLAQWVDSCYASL
T1 sequence (E9Q9K8 1-2307): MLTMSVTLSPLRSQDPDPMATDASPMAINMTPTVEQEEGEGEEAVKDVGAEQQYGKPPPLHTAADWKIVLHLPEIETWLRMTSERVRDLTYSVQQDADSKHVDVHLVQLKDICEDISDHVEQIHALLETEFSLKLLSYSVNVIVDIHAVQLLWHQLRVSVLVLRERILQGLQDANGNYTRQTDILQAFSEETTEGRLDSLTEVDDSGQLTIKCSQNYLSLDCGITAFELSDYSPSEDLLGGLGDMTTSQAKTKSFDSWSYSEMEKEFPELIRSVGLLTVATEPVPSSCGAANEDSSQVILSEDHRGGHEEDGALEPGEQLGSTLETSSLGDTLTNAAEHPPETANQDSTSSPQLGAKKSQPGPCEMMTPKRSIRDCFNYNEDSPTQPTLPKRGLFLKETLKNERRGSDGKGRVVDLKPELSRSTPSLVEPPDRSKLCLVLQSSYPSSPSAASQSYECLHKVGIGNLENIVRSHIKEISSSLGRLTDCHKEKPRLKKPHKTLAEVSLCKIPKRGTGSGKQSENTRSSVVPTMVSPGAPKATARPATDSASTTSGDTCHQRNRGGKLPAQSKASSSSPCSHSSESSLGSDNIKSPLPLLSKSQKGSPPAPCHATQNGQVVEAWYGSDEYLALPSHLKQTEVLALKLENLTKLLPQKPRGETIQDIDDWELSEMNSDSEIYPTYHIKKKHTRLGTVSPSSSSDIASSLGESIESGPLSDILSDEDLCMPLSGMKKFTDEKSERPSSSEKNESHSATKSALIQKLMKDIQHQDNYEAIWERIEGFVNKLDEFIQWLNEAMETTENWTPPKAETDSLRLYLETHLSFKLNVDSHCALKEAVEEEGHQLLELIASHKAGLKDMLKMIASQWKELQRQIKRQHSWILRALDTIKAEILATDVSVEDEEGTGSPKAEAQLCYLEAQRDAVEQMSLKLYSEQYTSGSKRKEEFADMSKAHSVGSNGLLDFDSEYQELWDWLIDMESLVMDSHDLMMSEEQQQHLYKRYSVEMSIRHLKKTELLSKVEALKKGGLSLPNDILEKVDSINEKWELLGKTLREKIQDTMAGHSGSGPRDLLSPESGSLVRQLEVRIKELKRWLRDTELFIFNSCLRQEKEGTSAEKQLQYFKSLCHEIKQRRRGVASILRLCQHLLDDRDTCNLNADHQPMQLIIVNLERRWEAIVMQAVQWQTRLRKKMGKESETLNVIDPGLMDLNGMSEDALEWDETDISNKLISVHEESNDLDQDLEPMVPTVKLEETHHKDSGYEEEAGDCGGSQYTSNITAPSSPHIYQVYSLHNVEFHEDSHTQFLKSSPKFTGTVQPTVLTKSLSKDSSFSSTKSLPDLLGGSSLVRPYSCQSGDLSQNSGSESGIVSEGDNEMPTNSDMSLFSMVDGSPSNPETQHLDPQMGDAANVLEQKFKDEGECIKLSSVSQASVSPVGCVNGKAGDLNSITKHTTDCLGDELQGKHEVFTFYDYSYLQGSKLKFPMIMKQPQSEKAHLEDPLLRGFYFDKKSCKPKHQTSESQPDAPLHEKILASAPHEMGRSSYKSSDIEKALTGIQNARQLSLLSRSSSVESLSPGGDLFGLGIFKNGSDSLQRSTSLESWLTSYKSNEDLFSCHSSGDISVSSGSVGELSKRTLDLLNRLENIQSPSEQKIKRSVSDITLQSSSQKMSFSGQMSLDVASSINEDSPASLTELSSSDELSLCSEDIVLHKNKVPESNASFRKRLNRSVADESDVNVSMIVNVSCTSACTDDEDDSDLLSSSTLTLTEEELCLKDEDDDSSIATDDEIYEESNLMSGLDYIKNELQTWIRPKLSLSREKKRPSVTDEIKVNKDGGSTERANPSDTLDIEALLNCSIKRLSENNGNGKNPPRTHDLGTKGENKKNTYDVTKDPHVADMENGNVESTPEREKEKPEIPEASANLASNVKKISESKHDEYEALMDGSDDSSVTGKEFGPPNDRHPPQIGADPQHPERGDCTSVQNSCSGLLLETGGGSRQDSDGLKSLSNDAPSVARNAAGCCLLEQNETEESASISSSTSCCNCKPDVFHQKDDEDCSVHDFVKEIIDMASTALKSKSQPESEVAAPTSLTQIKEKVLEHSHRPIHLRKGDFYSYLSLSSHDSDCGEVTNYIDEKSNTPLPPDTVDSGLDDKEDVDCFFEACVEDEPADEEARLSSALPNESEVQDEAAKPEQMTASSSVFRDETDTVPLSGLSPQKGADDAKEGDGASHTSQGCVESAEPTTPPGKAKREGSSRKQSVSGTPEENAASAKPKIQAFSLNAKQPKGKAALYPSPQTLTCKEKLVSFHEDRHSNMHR

SMILES: COc1ccc(NC(=O)CSc2nc3ccccc3c(=O)[nH]2)c(OC)c1 [Z160]
- heat stability of AKAP6 [1]: did not influence the heat stability
- denaturation (thermal shift) of PKA subunits C-α and RII-β [2]: did not show differences in denaturation
- pronase susceptibility of AKAP1 [3]: not
- Ucp1 mRNA and protein levels in BAT [4]: elevated
- expression of genes implicated in mitochondrial function and lipolysis in BAT [4]: enhanced expression
- plasma glucose levels [4]: 157.6 ± 26.2 mg/dL
- body temperature ([4]; measured 24 h later): 38.3 °C
- increase in body temperature ([4]; measured 24 h later, vs vehicle): 0.8 °C
- liver toxicity assessed by circulating aspartate aminotransferase (AST) levels ([4]; plasma): No liver toxicity
- PKA activity ([5]; 25 μM): significant increase
- PKA activity ([5]; 50 μM): significant increase
- PKA activation ([5]; mouse BAT extract, 25 μM): stimulated PKA activation
- PKA activation ([5]; mouse liver extract, 25 μM): stimulated PKA activation
